The values that follow come from patent publication US20040029808A1, “Peptides capable of functioning as mimotopes for hormonal analytes” (priority 2000, published 2004).

Ends that are not written are not given here.

One assay relates to MAb4155 (anti-estrone-3-glucuronide monoclonal antibody). As to the kind of experiment: ELISA testing of peptides on pins: binding of MAb4155 to peptides. The conditions noted are these: D-isomer reverse sequence versus L-isomer parent. Set-up: species or system mouse. On the technique in general: In an ELISA, binding on a coated surface is turned into a signal by an enzyme label.
As for “Asp-Tyr-Phe-Leu-Gly (DYFLG) [SEQ ID NO:37]”, the “Binding affinity relative to the parent sequence (SEQ ID NO:28)” value is listed as “equivalent”.

The test system is the same in a further assay. The description is as above. Set-up: species or system mouse. The settings on record: Table 1; peptides on pins based on SEQ ID NO:2 (truncations, Ala/Gly replacement). How it is done:
Monoclonal antibodies MAb 4155 were expressed from the 4155 monoclonal cell line. The 4155 monoclonal cell line was prepared and screened according to the methods described by Gani et al., (3 Steroid Biochem. Molec. Biol. 48, 277-282 (1994)).
Peptides were synthesised in duplicate or triplicate from the C-terminus by solid phase peptide synthesis on the heads of polyethylene pins (Geysen et al., Strategies for epitope analysis using peptide synthesis. J. Immunol. Methods 102, 259-274 (1987)) using a Multipin Peptide Synthesis Kit (Chiron Mimotopes, Victoria, Australia). Pins were arranged in a plastic holder in the format of a 96-well microtitre plate.
All incubation steps were performed at room temperature (18-25° C.) by lowering the pins reagents dispensed into 96-well microtitre plates (Becton Dickinson, Calif., USA). Washing was accomplished by placing the block of pins in a bath of phosphate buffered saline (PBS) containing Tween 20™ (0.01% v/v) with agitation for four cycles of 5 min. Non-specific binding sites on the surface of the pins were blocked by incubating in PBS containing casein (1% w/v, 175 μl/well) for 1 h. MAb4155 was diluted in blocking buffer and the pins were incubated in the antibody solution (150 μl/well) for 18 h at 4° C. After washing, the pins were incubated in horseradish peroxidase (HRP)-conjugated rabbit anti-mouse immunoglobulin (Dako, High Wycombe, UK, 1/1000 in blocking buffer for 1 h at 150 μl/well). The pins were washed once more and then incubated in ABTS [2,2′-azino-bis (3ethylbenzothiazoline-6-sulphonic acid)] working substrate for 15 min (150 μl/well). ABTS was prepared as a 0.033% (w/v) solution in 0.1M citrate phosphate buffer (pH 4.5) with 33% hydrogen peroxide (1 μl/ml). Colour development was terminated by removal of the pins from the wells and was measured spectrophotometrically at 405 nm using a Milenia Kinetic Analyser™ (DPC, Llanberis, Wales).
In order to identify core binding regions, a set of peptides was synthesised on the heads of pins based on SEQ ID NO:2. […] In addition, a set of peptides was synthesised in which each residue of the lead sequence was replaced by Ala (or Gly if Ala already existed at that position) in order to assess the contribution of each residue to the binding event.
Additional core binding sequences were identified utilizing the amino acid sequence SEQ ID NO:8 and investigating the effect of systematic replacement of each residue by the other 19 naturally occurring amino acids using known techniques as exemplified in Verhoeyen et al., Construction of a reshaped HMFG1 antibody and comparison of its fine specificity with that of the parent mouse antibody. Immunology, 78, 364-370 (1993).
As to Phe-Glu-Asp (FED) [SEQ ID NO:6], the “Relative Binding of MAb4155 to peptides as measured by ELISA” value (from here on “Relative Binding of MAb4155 to peptides”) was determined as 2.0.

With AAEAGLFED [SEQ ID NO:15], the “Relative Binding of MAb4155 to peptides” value is 2.0.

AGERGLFED [SEQ ID NO:13]: the “Relative Binding of MAb4155 to peptides” value amounted to 2.0.

For the substance ERGLFED [SEQ ID NO:10], the “Relative Binding of MAb4155 to peptides” value is reported as 1.8.

As for Ala-Ala-Glu (AAE) [SEQ ID NO:76], the “Relative Binding of MAb4155 to peptides” value stood at 0.9.

Consider AAERGLAED [SEQ ID NO:78], for which the “Relative Binding of MAb4155 to peptides” value is reported as 0.8.

Take AAERGLFED [SEQ ID NO:2]: the “Relative Binding of MAb4155 to peptides” value came out at 2.0.

AAERALFED [SEQ ID NO:16]: the “Relative Binding of MAb4155 to peptides” value came to 1.5.

For “Gly-Leu-Phe-Glu-Asp (GLFED) [SEQ ID NO:8]”, the “Relative Binding of MAb4155 to peptides” value was determined as 2.2.

With GAERGLFED [SEQ ID NO:12], the “Relative Binding of MAb4155 to peptides” value is recorded as 1.9.

Turning to AAERGLFE [SEQ ID NO:71], the “Relative Binding of MAb4155 to peptides” value stood at 1.0.

In the case of AAERGLFEA [SEQ ID NO:80], the “Relative Binding of MAb4155 to peptides” value is on record as 1.1.

Consider AAERGL [SEQ ID NO:73], for which the “Relative Binding of MAb4155 to peptides” value was determined as 1.0.

For AAARGLFED [SEQ ID NO:14], the “Relative Binding of MAb4155 to peptides” value stood at 1.5.

Take Ala-Ala-Glu-Arg (AAER) [SEQ ID NO:75]: the “Relative Binding of MAb4155 to peptides” value is recorded as 0.8.

As for AERGLFED [SEQ ID NO:11], the “Relative Binding of MAb4155 to peptides” value was 1.5.

For Leu-Phe-Glu-Asp (LFED) [SEQ ID NO:7], the “Relative Binding of MAb4155 to peptides” value was 1.9.

For RGLFED [SEQ ID NO:9], the “Relative Binding of MAb4155 to peptides” value is reported as 1.6.

In the case of AAERGLF [SEQ ID NO:72], the “Relative Binding of MAb4155 to peptides” value was 1.0.

In the case of AAERGLFAD [SEQ ID NO:79], the “Relative Binding of MAb4155 to peptides” value was 1.8.

For the substance “Ala-Ala-Glu-Arg-Gly (AAERG) [SEQ ID NO:74]”, the “Relative Binding of MAb4155 to peptides” value is 1.0.

Consider AAERGAFED [SEQ ID NO:17], for which the “Relative Binding of MAb4155 to peptides” value is reported as 1.6.

Staying with this assay, now noted: Table 2; replacement analogues of SEQ ID NO:8, setting SEQ ID NO:8 to a Relative Binding of 100.
For the substance “Gly-Leu-Phe-Leu-Asp (GLFLD) [SEQ ID NO:26]”, the “Relative Binding of MAb4155 to peptides” value was determined as 138.

As to “Gly-Leu-Trp-Glu-Asp (GLWED) [SEQ ID NO:21]”, the “Relative Binding of MAb4155 to peptides” value was determined as 207.

“Gly-Leu-Phe-Glu-Leu (GLFEL) [SEQ ID NO:32]”: the “Relative Binding of MAb4155 to peptides” value worked out at 168.

Turning to “Gly-Leu-Phe-Ile-Asp (GLFID) [SEQ ID NO:25]”, the “Relative Binding of MAb4155 to peptides” value is 169.

“Gly-Leu-Phe-Cys-Asp (GLFCD) [SEQ ID NO:22]”: the “Relative Binding of MAb4155 to peptides” value was 335.

For “Gly-Leu-Phe-Glu-Asp (GLFED) [SEQ ID NO:8]”, the “Relative Binding of MAb4155 to peptides” value is 100.

Consider “Gly-Leu-Phe-Asp-Asp (GLFDD) [SEQ ID NO:23]”, for which the “Relative Binding of MAb4155 to peptides” value was 121.

As for “Gly-Leu-Phe-Glu-Ile (GLFEI) [SEQ ID NO:31]”, the “Relative Binding of MAb4155 to peptides” value is on record as 174.

On to “Gly-Trp-Phe-Glu-Asp (GWFED) [SEQ ID NO:19]”, for which the “Relative Binding of MAb4155 to peptides” value was found to be 343.

Consider “Gly-Tyr-Phe-Glu-Asp (GYFED) [SEQ ID NO:20]”, for which the “Relative Binding of MAb4155 to peptides” value is listed as 220.

As to “Gly-Leu-Phe-Glu-Cys (GLFEC) [SEQ ID NO:29]”, the “Relative Binding of MAb4155 to peptides” value is listed as 296.

Turning to “Gly-Leu-Phe-Glu-Phe (GLFEF) [SEQ ID NO:30]”, the “Relative Binding of MAb4155 to peptides” value was found to be 204.

For the substance “Gly-Leu-Phe-Glu-Val (GLFEV) [SEQ ID NO:33]”, the “Relative Binding of MAb4155 to peptides” value was 177.

For “Gly-Leu-Phe-Tyr-Asp (GLFYD) [SEQ ID NO:28]”, the “Relative Binding of MAb4155 to peptides” value stood at 252.

Regarding “Gly-Phe-Phe-Glu-Asp (GFFED) [SEQ ID NO:18]”, the “Relative Binding of MAb4155 to peptides” value is on record as 200.

With “Gly-Leu-Phe-Trp-Asp (GLFWD) [SEQ ID NO:27]”, the “Relative Binding of MAb4155 to peptides” value was 578.

Consider “Gly-Leu-Phe-Glu-Trp (GLFEW) [SEQ ID NO:34]”, for which the “Relative Binding of MAb4155 to peptides” value is 594.

For the substance “Gly-Leu-Phe-Phe-Asp (GLFFD) [SEQ ID NO:24]”, the “Relative Binding of MAb4155 to peptides” value is 184.

Turning to “Gly-Leu-Phe-Glu-Tyr (GLFEY) [SEQ ID NO:35]”, the “Relative Binding of MAb4155 to peptides” value is recorded as 386.
